Format in all cases: in vivo, mouse
The test system of assay [1] is Acute Renal Failure Animal Model. In words: Test using acute renal failure animal model (renal ischemia and reperfusion), renal function parameters. Particulars: for Cer: creatinine clearance; for FENa: fractional excretion of sodium; for KW: kidney weight. From the text: A male ddY strain mouse (30 g) was used as an experimental animal. Under anesthesia with isoflurane, the right flank was incised about 2 cm to expose the kidney. After ligating the renal arteries and veins and the ureter, the right kidney was isolated.
A recovery period of 2 weeks was given, and then an acute renal failure mouse model was produced. Under anesthesia with isoflurane, the left abdomen was incised about 3 cm to expose the left kidney, and the fat around the renal arteries and veins was removed. The blood flow in the left renal arteries and veins was blocked using an atraumatic clip, and the kidney was left in ischemia for 45 minutes. The blood flow was then reperfused by removing the atraumatic clip, the kidney was returned to the abdominal cavity, and the flank was sutured. Mice similarly subjected to the steps other than the ischemia and reperfusion steps using the atraumatic clip were designated as a sham group (eight mice).
After 15 minutes of the initiation of ischemia, the vehicle, SMTP-7, SMTP-27, SMTP-44D, and edaravone were continuously administered to the femoral vein for 30 minutes.
24 hours after the ischemia and reperfusion processes, urine was collected for 24 hours using a metabolic cage, and the urinary output (UF; μL/min/kg) was measured. During collecting urine, only water was freely given. After urine collection, the body weight of each mouse was measured, and blood was collected from the abdominal aorta under anesthesia with isoflurane. After blood collection, the left kidney was isolated and the fat was removed in physiological saline. The kidney weight (KW; mg/g) was measured, and then the kidney was fixed in a 10% neutral buffered formalin solution for Hematoxylin Eosin (HE) staining.
The collected blood was centrifuged at 800×g for 15 minutes at 25° C. to collect serum. Further, the urine collected using a metabolic cage was also used to evaluate renal function. In order to evaluate parameters in the serum, blood urea nitrogen (BUN; mg/dL) was measured using a QuantiChrom Urea Assay Kit (Funakoshi Co., Ltd.). Serum creatinine concentration (Scr; mg/dL) and urinary creatinine concentration (Ucr; mg/dL) were measured using LabAssay (trademark) Creatinine (manufactured by Wako Pure Chemical Industries, Ltd.), and creatinine clearance (Ccr; mL/min/kg) was calculated. The concentrations of sodium in the serum and urine were measured using Fuji Dry Chem 7000 (manufactured by FUJIFILM Corporation), and fractional excretion of sodium (FENa; %) was calculated. Urinary albumin concentration (Ualb; mg/hr/kg) was measured using Albwel M (manufactured by Cosmo Bio Co., Ltd.).
In Table 11, the experimental results are expressed in mean±standard error in eight mice in each group. For comparison among multiple groups, firstly, one-way analysis of variance (ANOVA) was conducted, and then a Bonferroni test was conducted, if significant difference was recognized. Significant difference was recognized with a significance level of less than 5% (P<0.05).

In assay [2] the test system is Chronic Renal Failure Animal Model. In words: Test using chronic renal failure animal model (nephrectomy + acetic acid application), renal function parameters. Particulars: Table 10 experiment (edaravone instead of SMTP-7); 30 mg/kg, same regimen as the SMTP-7 30 mg/kg group. The protocol: A male ddY strain mouse (body weight: 30 g to 40 g) was used. Under anesthesia with isoflurane, the right flank of the mouse was incised, the renal arteries and veins were ligated, and then the right kidney was isolated. After suturing, acrinol was applied to the suture site as a disinfection treatment, and enrofloxacin was subcutaneously administered at 5 mg/kg as a preventive measure against infection, and acetaminophen was subcutaneously administered at 75 mg/kg as an analgesic treatment. After a recovery period of 3 to 4 weeks, the left abdomen of the mouse was incised, 100% acetic acid was applied to both sides of the kidney 10 times. This was defined as one course, and two courses were conducted at 5 minute intervals. After suturing, postoperative treatment was conducted in the same manner as in the removal of one of the kidneys. Considering the effect of surgery, a sham group to which acetic acid was not applied was provided.
4 weeks after the application of acetic acid, SMTP-7 was administered at a dose of 10 mg/kg or 30 mg/kg. The administration was carried out three times a week for 8 consecutive weeks by intraperitoneal administration. In addition, physiological saline was similarly administered to the sham group (without acetic acid application) and the Control group (with acetic acid application).
12 weeks after the application of acetic acid, urine was collected for 24 hours using a metabolic cage, and the urinary output was measured. During collecting urine, water was freely given. After urine collection, blood was collected from the descending aorta, the collected blood was centrifuged at 3000 rpm for 15 minutes, serum was separated, and BUN (urea nitrogen) and sCr (serum creatinine value) were measured. Further, protein and creatinine in the urine were also measured to calculate creatinine clearance (Ccr). BUN was measured using Urea B-test Wako (manufactured by Wako Pure Chemical Industries, Ltd.) and a QuantiChrom Urea Assay Kit (manufactured by Funakoshi Co., Ltd.), sCr was measured using Lab Assay Creatinine (manufactured by Wako Pure Chemical Industries, Ltd.), and urinary protein was measured using a BCA Protein assay kit (Thermo Fisher Scientific).
Renal function was evaluated by measuring BUN, sCr, urinary output, and urinary protein. In addition, urinary creatinine was measured to calculate creatinine clearance (Ccr).
In Table 9, the experimental results are expressed in mean±standard error. With reference to statistically significant difference, an unpaired test between two groups (Student's t-test) was conducted for comparison between two groups, and one-way analysis of variance was conducted and then a Dunnett test was conducted for comparison among multiple groups. In all cases, a significance level of 5% or less (P<0.05) was regarded as significant difference.
The experiment and evaluation were carried out in the same manner as in the SMTP-7 (30 mg/kg) administration group, except that edaravone (30 mg/kg) was administered instead of SMTP-7 in the SMTP-7 (30 mg/kg) administration group.

The subject of assay [3] is Acute Renal Failure Animal Model. In words: Acute renal failure animal model, pathological tissue specimen (HE staining) lesion scores. Particulars: 3 mg/kg. The protocol:
24 hours after the ischemia and reperfusion processes, urine was collected for 24 hours using a metabolic cage, measurement of body weight was conducted, and blood was collected. Thereafter, nephrectomy was conducted, and formalin-fixed kidney was permeated with paraffin using an automatic embedding device to produce a paraffin block. The paraffin block was sliced into 3 μm sections with a microtome, and placed on a slide glass. Then, the sections were stretched with a paraffin stretcher at 52° C., and sufficiently dried overnight in a paraffin melter at 37° C. After deparaffinization and washing with water, the sections were stained with a Mayer's hematoxylin staining solution for 1 minute and washed with running water for 15 minutes. Thereafter, the sections were stained with an eosin staining solution for 45 seconds, and dehydrated with 80% to 100% ethanol, followed by clearing with xylene and sealing with marinol. Each specimen was examined microscopically at a magnification of 50 using an optical microscope. With respect to tubular dilatation, tubular necrosis, and tubular casts in the cortex, outer zone of outer medulla, and inner zone of outer medulla, the percentage of lesions in each site was evaluated according to the following criteria.
In Table 12, the experimental results are expressed in mean±standard error in eight mice in each group. For comparison among multiple groups, firstly, one-way analysis of variance (ANOVA) was conducted, and then a Bonferroni test was conducted, if significant difference was recognized. Significant difference was recognized with a significance level of less than 5% (P<0.05).

Where [4] appears, read: 30 mg/kg continuous femoral vein 30 min from 15 min after start of 45 min ischemia, mean±SE, 8 mice.
Where [5] appears, read: 30 mg/kg, acute renal failure model.
Setting [6] is: 30 mg/kg continuous femoral vein 30 min from 15 min after start of 45 min ischemia, mean±SE, 8 mice, 30 mg/kg.
[7] abbreviates: urinary albumin, 30 mg/kg continuous femoral vein 30 min from 15 min after start of 45 min ischemia, mean±SE, 8 mice.
The mark [8] stands for this setting: urinary output, 30 mg/kg continuous femoral vein 30 min from 15 min after start of 45 min ischemia, mean±SE, 8 mice.
[9] abbreviates: points 0 (no lesion) to 4 (severe, 50% or more), mean±SE, 8 mice.
Where [10] appears, read: 3 mg/kg continuous femoral vein 30 min from 15 min after start of 45 min ischemia, mean±SE, 8 mice.
The mark [11] stands for this setting: 3 mg/kg, acute renal failure model.
[12] abbreviates: 3 mg/kg continuous femoral vein 30 min from 15 min after start of 45 min ischemia, mean±SE, 8 mice, 3 mg/kg.

Structures are written as SMILES.

Take `CC(C)=CCC/C(C)=C/CCC1(C)Oc2c(c(O)cc3c2CN(c2cc(C(=O)O)ccc2O)C3=O)CC1O` (stereo not drawn) [SMTP-27]: in assay [1] (setting [4]), the BUN was 59.7 ± 10.5 mg/dL and the Scr was 0.5 ± 0.0 mg/dL. Also, in assay [1] (setting [5]), the UF amounted to 4.67 ± 0.984 mL/h/kg and the Ualb is 2.0 ± 0.4 mg/h/kg. Further, in assay [1] (setting [6]), the Cer is 150 ± 6 mL/h/kg, the FENa is on record as 0.8±0.1% and the KW turned out to be 13.8 ± 0.7 mg/g. Moreover, the Ualb in assay [1] (setting [7]) was 2 ± 0.4 mg/h/kg. For the same compound, the UF in assay [1] (setting [8]) amounted to 4.67 ± 0.984 mL/h/kg.
Take `CC1=NN(c2ccccc2)C(=O)C1` [edaravone, reference compound]: in assay [2], the Urinary output was determined as 3.77 ± 0.704 mL/h/kg and the Urinary protein is 553 ± 109 mg/kg/day. Moreover, in assay [3] (compared to control group), the “Histopathological changes (lesion changes), result in words” value is “lesion changes were significantly improved only in tubular necrosis and tubular casts in the outer zone of outer medulla of the kidney and tubular casts in the inner zone of outer medulla”. Also, in assay [3] (setting [9]), the “Tubular cast score, Cortex” value was determined as 0.9 ± 0.1; the “Tubular cast score, Inner zone of outer medulla” value was found to be 1.5 ± 0.4; the “Tubular cast score, Outer zone of outer medulla” value was found to be 1.0 ± 0.2; the “Tubular dilatation score, Cortex” value is recorded as 3.0 ± 0.5. Also, in assay [3] (setting [9]), the “Tubular dilatation score, Inner zone of outer medulla” value came to 2.4 ± 0.5; the “Tubular dilatation score, Outer zone of outer medulla” value was 2.4 ± 0.5; the “Tubular necrosis score, Cortex” value is reported as 0.9 ± 0.1; the “Tubular necrosis score, Inner zone of outer medulla” value worked out at 0.9 ± 0.1. The “Tubular necrosis score, Outer zone of outer medulla” value in assay [3] (setting [9]) is listed as 0.9 ± 0.1. Also, in assay [1] (setting [10]), the BUN was found to be 61.1 ± 5.9 mg/dL and the Scr was 0.5 ± 0.0 mg/dL. Also, in assay [1] (setting [11]), the UF was found to be 3.32 ± 0.726 mL/h/kg and the Ualb came out at 0.9 ± 0.2 mg/h/kg. In assay [1] (setting [12]), the Cer amounted to 126 ± 12 mL/h/kg, the FENa is listed as 1.0±0.1% and the KW worked out at 13.4 ± 0.6 mg/g. Besides, in assay [1] (urinary albumin, 3 mg/kg continuous femoral vein 30 min from 15 min after start of 45 min ischemia, mean±SE, 8 mice), the Ualb was 0.9 ± 0.2 mg/h/kg. Besides, the UF in assay [1] (urinary output, 3 mg/kg continuous femoral vein 30 min from 15 min after start of 45 min ischemia, mean±SE, 8 mice) was determined as 3.32 ± 0.726 mL/h/kg.
In assay [1] (setting [4]), `CC(C)=CCCC(C)=CCCC1(C)Oc2c(c(O)cc3c2CN(C(C(=O)O)c2ccc(O)cc2)C3=O)CC1O` (stereo not drawn) [SMTP-44D] yielded a BUN of 55.7 ± 14.2 mg/dL and a Scr of 0.6 ± 0.1 mg/dL. Besides, in assay [1] (setting [5]), the UF was 6.192 ± 2.008 mL/h/kg and the Ualb stood at 1.3 ± 0.3 mg/h/kg. In assay [1] (setting [6]), this compound registered a Cer of 138 ± 24 mL/h/kg, an FENa of 1.2±0.1% and a KW of 12.3 ± 1.2 mg/g. Moreover, the Ualb in assay [1] (setting [7]) came to 1.3 ± 0.3 mg/h/kg. The same compound yielded a UF in assay [1] (setting [8]) of 6.19 ± 2.02 mL/h/kg.

The record behind these values is patent US20250099427A1, “Drug and Method of Treating or Preventing Renal Disease Using Drug” (Showa University, priority 2018, published 2025).
